Measured values reported in US8309718B2, “4-pyrazolyl-N-arylpyrimidin-2-amines and 4-pyrazolyl-N-heteroarylpyrimidin-2-amines as janus kinase inhibitors” (Incyte Corporation, priority 2007, dated 2012).

Molecular target: T1, human JAK2 (Homo sapiens, UniProt O60674)
T1 construct: JAK2 (a.a. 828-1132); His tag (N); made in house; host or cells: insect cells (baculovirus)
Test: In vitro JAK kinase assay (HTRF, phosphorylation of biotinylated peptide)
Format: biochemical
Conditions: catalytic domain a.a. 828-1132, 30 μM ATP, 500 nM peptide, room temperature 1 hr; read-out: JAK-2 IC50
In short: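 IC50 from HTRF detection (Eu-Py20 antibody, SA-APC) of biotinylated-peptide phosphorylation (500 nM), run 1 h at RT. Enzyme: N-His human JAK2 kinase domain a.a. 828-1132 from insect cells; ATP 30 μM; buffer 50 mM Tris pH 7.8 with NaCl, DTT, BSA.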

T1 sequence (O60674 828-1132): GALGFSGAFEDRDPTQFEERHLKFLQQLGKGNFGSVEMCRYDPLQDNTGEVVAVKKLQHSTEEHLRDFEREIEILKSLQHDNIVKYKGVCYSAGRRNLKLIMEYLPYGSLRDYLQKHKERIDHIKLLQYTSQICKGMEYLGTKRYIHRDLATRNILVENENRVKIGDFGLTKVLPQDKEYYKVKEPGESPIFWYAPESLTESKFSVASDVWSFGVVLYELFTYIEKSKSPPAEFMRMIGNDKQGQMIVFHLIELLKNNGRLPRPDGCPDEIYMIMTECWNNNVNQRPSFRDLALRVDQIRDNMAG

Compound	IC50
COc1cnc(Nc2ccc(-c3cnco3)cc2)nc1-c1cnn(C(CC#N)C2CCCC2)c1 (racemic) [Example 131, 3-cyclopentyl-3-(4-(5-methoxy-2-(4-(oxazol-5-yl)phenylamino)pyrimidin-4-yl)-1H-pyrazol-1-yl)propanenitrile]	< 0.1 µM
COc1cnc(Nc2cccc(C(=O)N3CC[C@H](OC)C3)c2)nc1-c1cnn(C(CC#N)C2CC2)c1 (mixture of isomers) [Example 326, 3-cyclopropyl-3-(4-{5-methoxy-2-[(3-{[(3S)-3-methoxypyrrolidin-1-yl]carbonyl}phenyl)amino]pyrimidin-4-yl}-1H-pyrazol-1-yl)propanenitrile]	< 0.1 µM
N#CCC(C1CCC1)n1cc(-c2ccnc(Nc3ccc(N4CCCCC4=O)cc3)n2)cn1 (racemic) [Example 174, 3-cyclobutyl-3-(4-(2-(4-(2-oxopiperidin-1-yl)phenylamino)pyrimidin-4-yl)-1H-pyrazol-1-yl)propanenitrile]	< 0.1 µM
N#CCC(C1CCCC1)n1cc(-c2ccnc(Nc3cccc(C(=O)NCC4CCOCC4)c3)n2)cn1 (racemic) [Example 153, 3-(4-(1-(2-cyano-1-cyclopentylethyl)-1H-pyrazol-4-yl)pyrimidin-2-ylamino)-N-((tetrahydro-2H-pyran-4-yl)methyl)benzamide]	< 0.1 µM
N#CCC1(n2cc(-c3ccnc(Nc4cccc(-c5cnco5)c4)n3)cn2)CCN(C(=O)c2ccno2)CC1 (racemic) [Example 13, 2-(1-(isoxazole-5-carbonyl)-4-(4-(2-(3-(oxazol-5-yl)phenylamino)pyrimidin-4-yl)-1H-pyrazol-1-yl)piperidin-4-yl)acetonitrile]	< 0.1 µM
N#CCC(C1CCCC1)n1cc(-c2ccnc(Nc3cccc(C(=O)N4CCNC(=O)C4)c3)n2)cn1 (racemic) [Example 140, 3-cyclopentyl-3-(4-(2-(3-(3-oxopiperazine-1-carbonyl)phenylamino)pyrimidin-4-yl)-1H-pyrazol-1-yl)propanenitrile]	< 0.1 µM
CC(=O)Nc1ccc(Nc2nccc(-c3cnn(C(CC#N)CC4CCN(C(=O)c5ccc(F)cc5F)CC4)c3)n2)cc1 (racemic) [Example 60, N-(4-(4-(1-(1-cyano-3-(1-(2,4-difluorobenzoyl)piperidin-4-yl)propan-2-yl)-1H-pyrazol-4-yl)pyrimidin-2-ylamino)phenyl)acetamide]	< 0.1 µM
N#CCC(C1CCCC1)n1cc(-c2ccnc(Nc3ccc(N4CCCC4=O)cc3)n2)cn1 (racemic) [Example 129, 3-cyclopentyl-3-(4-(2-(4-(2-oxopyrrolidin-1-yl)phenylamino)pyrimidin-4-yl)-1H-pyrazol-1-yl)propanenitrile]	< 0.1 µM
N#CCC(C1CCCC1)n1cc(-c2ccnc(Nc3cccc(NC(=O)CNCC4CC4)c3)n2)cn1 (racemic) [Example 241, N-(3-(4-(1-(2-cyano-1-cyclopentylethyl)-1H-pyrazol-4-yl)pyrimidin-2-ylamino)phenyl)-2-(cyclopropylmethylamino)acetamide]	< 0.1 µM
CO[C@H]1CCN(C(=O)c2ccc(Nc3nccc(-c4cnn(C(CC#N)C5CCCC5)c4)n3)cc2)C1 (mixture of isomers) [Example 226, 3-cyclopentyl-3-(4-(2-(4-((S)-3-methoxypyrrolidine-1-carbonyl)phenylamino)pyrimidin-4-yl)-1H-pyrazol-1-yl)propanenitrile]	< 0.1 µM
N#CCC(C1CCCC1)n1cc(-c2ccnc(Nc3ccc(NC(=O)CNCC4CCOCC4)cc3)n2)cn1 (racemic) [Example 208, N-(4-(4-(1-(2-cyano-1-cyclopentylethyl)-1H-pyrazol-4-yl)pyrimidin-2-ylamino)phenyl)-2-((tetrahydro-2H-pyran-4-yl)methylamino)acetamide]	< 0.1 µM
N#CCC(C1CCCC1)n1cc(-c2ccnc(Nc3cccc(C(=O)N4CCOCC4)c3)n2)cn1 (racemic) [Example 147, 3-cyclopentyl-3-(4-(2-(3-(morpholine-4-carbonyl)phenylamino)pyrimidin-4-yl)-1H-pyrazol-1-yl)propanenitrile]	< 0.1 µM
N#CCC(C1CC1)n1cc(-c2ccnc(Nc3ccc(C(=O)N4CCCC4)cc3)n2)cn1 (racemic) [Example 253, 3-cyclopropyl-3-(4-(2-(4-(pyrrolidine-1-carbonyl)phenylamino)pyrimidin-4-yl)-1H-pyrazol-1-yl)propanenitrile]	< 0.1 µM
CCS(=O)(=O)N1CCC(CC(CC#N)n2cc(-c3ccnc(Nc4ccccc4)n3)cn2)CC1 (racemic) [Example 44, 4-(1-(ethylsulfonyl)piperidin-4-yl)-3-(4-(2-(phenylamino)pyrimidin-4-yl)-1H-pyrazol-1-yl)butanenitrile]	< 0.1 µM
COc1cnc(Nc2cccc(-c3ccnc(C)n3)c2)nc1-c1cnn(C(CC#N)C2CCCC2)c1 (racemic) [Example 134, 3-cyclopentyl-3-(4-(5-methoxy-2-(3-(2-methylpyrimidin-4-yl)phenylamino)pyrimidin-4-yl)-1H-pyrazol-1-yl)propanenitrile]	< 0.1 µM

Results, then the molecule that gave them:

IC50	Compound
< 0.1 µM	Cc1cnc(Nc2ccc(C(N)=O)cc2)nc1-c1cnn(C(CC#N)C2CCCC2)c1 (racemic) [Example 70, 4-(4-(1-(2-cyano-1-cyclopentylethyl)-1H-pyrazol-4-yl)-5-methylpyrimidin-2-ylamino)benzamide]
< 0.1 µM	COc1cnc(Nc2ccc(C(=O)N3CCCC3)cc2)nc1-c1cnn(C(CC#N)C2CCCC2)c1 (racemic) [Example 303, 3-cyclopentyl-3-(4-(5-methoxy-2-(4-(pyrrolidine-1-carbonyl)phenylamino)pyrimidin-4-yl)-1H-pyrazol-1-yl)propanenitrile]
< 0.1 µM	Cc1cnc(Nc2ccccc2)nc1-c1cnn(C(CC#N)C2CCCC2)c1 (racemic) [Example 73, 3-cyclopentyl-3-(4-(5-methyl-2-(phenylamino)pyrimidin-4-yl)-1H-pyrazol-1-yl)propanenitrile]
< 0.1 µM	CCOC(=O)N1CCC(NC(=O)c2ccc(Nc3nccc(-c4cnn(C5(CC#N)CN(S(=O)(=O)CC)C5)c4)n3)cc2)CC1 [Example 284, Ethyl 4-(4-(4-(1-(3-(cyanomethyl)-1-(ethylsulfonyl)azetidin-3-yl)-1H-pyrazol-4-yl)pyrimidin-2-ylamino)benzamido)piperidine-1-carboxylate]
< 0.1 µM	N#CCC(C1CCOCC1)n1cc(-c2ccnc(Nc3ccc(C(=O)N4CCOCC4)cc3)n2)cn1 (racemic) [Example 311, 3-[4-(2-{[4-(morpholin-4-ylcarbonyl)phenyl]amino}pyrimidin-4-yl)-1H-pyrazol-1-yl]-3-(tetrahydro-2H-pyran-4-yl)propanenitrile]
< 0.1 µM	COc1cnc(Nc2ccc(N3CCOCC3=O)cc2)nc1-c1cnn(C(CC#N)C2CCCC2)c1 (racemic) [Example 133, 3-cyclopentyl-3-(4-(5-methoxy-2-(4-(3-oxomorpholino)phenylamino)pyrimidin-4-yl)-1H-pyrazol-1-yl)propanenitrile]
< 0.1 µM	N#CCC(C1CCCC1)n1cc(-c2ccnc(Nc3ccc(NC(=O)CNCC4CC4)cc3)n2)cn1 (racemic) [Example 210, N-(4-(4-(1-(2-cyano-1-cyclopentylethyl)-1H-pyrazol-4-yl)pyrimidin-2-ylamino)phenyl)-2-(cyclopropylmethylamino)acetamide]
< 0.1 µM	CC(=O)Nc1ccc(Nc2nccc(-c3cnn(C(CC#N)C4CCCC4)c3)n2)cc1 (racemic) [Example 39, N-(4-(4-(1-(2-cyano-1-cyclopentylethyl)-1H-pyrazol-4-yl)pyrimidin-2-ylamino)phenyl)acetamide]
< 0.1 µM	N#CCC(C1CCCC1)n1cc(-c2ccnc(Nc3ccc(C(=O)N[C@H]4CC[C@@H](O)CC4)cc3)n2)cn1 (mixture of isomers) [Example 223, 4-(4-(1-(2-cyano-1-cyclopentylethyl)-1H-pyrazol-4-yl)pyrimidin-2-ylamino)-N-(cis-4-hydroxycyclohexyl)benzamide]
< 0.1 µM	CCNCC(=O)Nc1cccc(Nc2nccc(-c3cnn(C(CC#N)C4CCCC4)c3)n2)c1 (racemic) [Example 243, N-(3-(4-(1-(2-cyano-1-cyclopentylethyl)-1H-pyrazol-4-yl)pyrimidin-2-ylamino)phenyl)-2-(ethylamino)acetamide]
< 0.1 µM	N#CCC(C1CCCC1)n1cc(-c2ccnc(Nc3cccc(N)c3)n2)cn1 (racemic) [Example 108, 3-(4-(2-(3-aminophenylamino)pyrimidin-4-yl)-1H-pyrazol-1-yl)-3-cyclopentylpropanenitrile]
< 0.1 µM	Cc1cnc(Nc2ccc(NS(C)(=O)=O)cc2)nc1-c1cnn(C(CC#N)C2CCCC2)c1 (racemic) [Example 89, N-(4-(4-(1-(2-cyano-1-cyclopentylethyl)-1H-pyrazol-4-yl)-5-methylpyrimidin-2-ylamino)phenyl)methanesulfonamide]
< 0.1 µM	CCS(=O)(=O)N1CC(CC#N)(n2cc(-c3ccnc(Nc4ccc(C(=O)N5CCC(O)CC5)cc4)n3)cn2)C1 [Example 256, 2-(1-(ethylsulfonyl)-3-(4-(2-(4-(4-hydroxypiperidine-1-carbonyl)phenylamino)pyrimidin-4-yl)-1H-pyrazol-1-yl)azetidin-3-yl)acetonitrile]
< 0.1 µM	CN1CCN(C(=O)c2ccc(Nc3nccc(-c4cnn(C(CC#N)C5CCCC5)c4)n3)cc2)CC1 (racemic) [Example 120, 3-cyclopentyl-3-(4-(2-(4-(4-methylpiperazine-1-carbonyl)phenylamino)pyrimidin-4-yl)-1H-pyrazol-1-yl)propanenitrile]
< 0.1 µM	CCS(=O)(=O)N1CCC(CC(CC#N)n2cc(-c3ccnc(Nc4ccc(C(=O)N(C)C)cc4)n3)cn2)CC1 (racemic) [Example 46, 4-(4-(1-(1-cyano-3-(1-(ethylsulfonyl)piperidin-4-yl)propan-2-yl)-1H-pyrazol-4-yl)pyrimidin-2-ylamino)-N,N-dimethylbenzamide]
